Measured values taken from patent US9630957B2, “2,3-butanediamide epoxide compound and preparation method and use thereof” (Institute of Pharmacology and Toxicology Academy of …, priority 2014, dated 2017).
Converted amounts (≈) assume the structure as drawn.

Assays:
[1] = system: enterovirus EV71 (BrCr strain); test: Activity screening for anti-enterovirus EV71: inhibition of cytopathic effect in Vero cells; assay type: cell-based; details: for IC50: 100TCID50, Vero cells, CPE read when virus control reaches 4+, read-out: IC50 (half inhibitory concentration for enterovirus EV71); for SI (Selectivity Index = TC50/IC50): Vero cells
Description: Test item: Activity screening of the compounds for anti-enterovirus EV71
Test principle: Vero cells are used as viral host. The inhibition of the compound of the invention on the degree of cytopathic effect of Vero cells caused by enterovirus virus EV71 is determined.
1. Virus strain: enterovirus EV71 (BrCr, American Type Culture Collection, ATCC)
(§1) 2. Sample treatment: the compounds of the present invention are dissolved in DMSO or diluent to prepare stock solution which is stored at −20° C. The stock solution is formulated to suitable incipient concentration with culture solution immediately before use, and then 3-fold diluted with the culture solution, 8 degrees of dilution each.
3. Positive control drug: Pirodavir (LGM Pharma), which is a broad-spectrum anti-viral inhibitor.
(§2) 4. Test Method: Vero cells are seeded into a 96-well culture plate, at 5% CO2, and cultured at 37° C. for 16 hours. The Vero cells are added with different dilutions of drugs, and the degree of cytopathic effect (CPE) in each group is observed. The half toxic concentration (TC50) of each sample for Vero cells is calculated. Vero cells are added with 100TCID50 enterovirus EV71 respectively, and the virus solution is discarded after adsorption at 37° C. for 1 hour, and then drugs with various degrees of dilution are added respectively. Virus control and cell control are set and incubated at 37° C. The degree of cytopathic effect (CPE) in each group is observed when the degree of cytopathic effect (CPE) of virus control group reaches 4+. The half inhibitory concentration (IC50) of each sample for enterovirus EV71 are calculated. Selectivity Index (SI) is calculated according to the following equation: SI=TC50/IC50.

[2] = system: Vero cells; test: Cytotoxicity of the compounds for Vero cells (CPE observation, TC50); assay type: cell-based; details: no virus
Description: as §1, §2

O=C(Nc1nc2ccccc2s1)c1ccc(N(Cc2ccc(F)cc2)C(=O)[C@H]2O[C@@H]2C(=O)O)cc1 [Compound 16, (2S,3S)-3-((4-(benzo[d]thiazol-2-ylcarbamoyl)phenyl)(4-fluorobenzyl)carbamoyl)oxirane-2-carboxylic acid]
IC50 [1]: > 2.47 µg/mL | melting point: 200.6 to 201.3 °C | TC50 (half toxic concentration for Vero cells) [2]: 17.25 µg/mL

O=C(Nc1cccc(Cl)c1)[C@H]1O[C@@H]1C(=O)N(Cc1ccccc1)c1ccccc1 [Compound 8, (2S,3S)—N^2-benzyl-N^2-phenyl-N^3-(3-chlorophenyl)-2,3-epoxybutanediamide]
IC50 [1]: 0.27 µg/mL (≈ 0.664 µM) | SI (Selectivity Index = TC50/IC50) [1]: 15.85 | melting point: 179.2 to 179.6 °C | TC50 (half toxic concentration for Vero cells) [2]: 4.28 µg/mL

O=C(Nc1ccccc1Br)[C@H]1O[C@@H]1C(=O)N(Cc1ccccc1)c1ccccc1 [Compound 15, (2S,3S)—N^2-benzyl-N^2-phenyl-N^3-(2-bromophenyl)-2,3-epoxybutanediamide]
IC50 [1]: 0.47 µg/mL (≈ 1.04 µM) | SI (Selectivity Index = TC50/IC50) [1]: 3.04 | melting point: 113.2 to 114.3 °C | TC50 (half toxic concentration for Vero cells) [2]: 1.43 µg/mL

O=C(Nc1nc2ccccc2s1)c1ccc(N(Cc2ccc(F)cc2)C(=O)[C@H]2O[C@@H]2C(=O)Nc2ccc([N+](=O)[O-])cc2)cc1 [Compound 24, (2S,3S)—N^2-(4-(benzo[d]thiazol-2-ylcarbamoyl)phenyl)-N^3-(4-nitrophenyl)-N^2-(4-fluorobenzyl)-2,3-epoxybutanediamide]
IC50 [1]: > 0.82 µg/mL | melting point: 203.5 to 204.2 °C | TC50 (half toxic concentration for Vero cells) [2]: 1.43 µg/mL

O=C(Nc1ccccc1Cl)[C@H]1O[C@@H]1C(=O)N(Cc1ccccc1)c1ccccc1 [Compound 11, (2S,3S)—N^2-benzyl-N^2-phenyl-N^3-(2-chlorophenyl)-2,3-epoxybutanediamide]
IC50 [1]: 0.15 µg/mL (≈ 0.369 µM) | SI (Selectivity Index = TC50/IC50) [1]: 9.53 | melting point: 117.3 to 118.2 °C | TC50 (half toxic concentration for Vero cells) [2]: 1.43 µg/mL

O=C(Nc1nc2ccccc2s1)c1ccc(N(Cc2ccc(F)cc2)C(=O)[C@H]2O[C@@H]2C(=O)Nc2cccc(F)c2)cc1 [Compound 30, (2S,3S)—N^2-(4-(benzo[d]thiazol-2-ylcarbamoyl)phenyl)-N^3-(3-fluorophenyl)-N^2-(4-fluorobenzyl)-2,3-epoxybutanediamide]
IC50 [1]: 0.36 µg/mL (≈ 0.616 µM) | SI (Selectivity Index = TC50/IC50) [1]: 3.97 | melting point: 202.4 to 203.1 °C | TC50 (half toxic concentration for Vero cells) [2]: 1.43 µg/mL

O=C(Nc1nc2ccccc2s1)c1ccc(N(Cc2ccccc2)C(=O)[C@H]2O[C@@H]2C(=O)Nc2ccc(Cl)c(Cl)c2)cc1 [Compound 40, (2S,3S)—N^2-(4-(benzo[d]thiazol-2-ylcarbamoyl)phenyl)-N^2-benzyl-N^3-(3,4-dichlorophenyl)-2,3-epoxybutanediamide]
IC50 [1]: > 0.82 µg/mL | melting point: 217.6 to 218.3 °C | TC50 (half toxic concentration for Vero cells) [2]: 1.43 µg/mL

COc1cccc(NC(=O)[C@H]2O[C@@H]2C(=O)N(Cc2ccccc2)c2ccccc2)c1 [Compound 7, (2S,3S)—N^2-benzyl-N^2-phenyl-N^3-(3-methoxyphenyl)-2,3-epoxybutanediamide]
IC50 [1]: 0.27 µg/mL (≈ 0.671 µM) | SI (Selectivity Index = TC50/IC50) [1]: 15.85 | melting point: 130.7 to 131.7 °C | TC50 (half toxic concentration for Vero cells) [2]: 4.28 µg/mL

O=C(Nc1nc2ccccc2s1)c1ccc(N(Cc2ccc(F)cc2)C(=O)[C@H]2O[C@@H]2C(=O)Nc2nccs2)cc1 [Compound 32, (2S,3S)—N^2-(4-(benzo[d]thiazol-2-ylcarbamoyl)phenyl)-N^2-(4-fluorobenzyl)-N^3-(2-thiazolyl)-2,3-epoxybutanediamide]
IC50 [1]: > 0.27 µg/mL | melting point: 216.4 to 217.2 °C | TC50 (half toxic concentration for Vero cells) [2]: 1.19 µg/mL

COc1ccc(NC(=O)[C@H]2O[C@@H]2C(=O)N(Cc2ccc(F)cc2)c2ccc(C(=O)Nc3nc4ccccc4s3)cc2)cc1 [Compound 20, (2S,3S)—N^2-(4-(benzo[d]thiazol-2-ylcarbamoyl)phenyl)-N^3-(4-methoxyphenyl)-N^2-(4-fluorobenzyl)-2,3-epoxybutanediamide]
IC50 [1]: > 2.47 µg/mL | melting point: 200.1 to 201.2 °C | TC50 (half toxic concentration for Vero cells) [2]: 13.74 µg/mL

O=C(Nc1nc2ccccc2s1)c1ccc(N(Cc2ccccc2)C(=O)[C@H]2O[C@@H]2C(=O)O)cc1 [Compound 38, (2S,3S)-3-((4-(benzo[d]thiazol-2-ylcarbamoyl)phenyl)(benzyl)carbamoyl)oxirane-2-carboxylic acid]
IC50 [1]: > 22.2 µg/mL | melting point: 198.6 to 199.3 °C | TC50 (half toxic concentration for Vero cells) [2]: 115.47 µg/mL

COc1ccc(NC(=O)[C@H]2O[C@@H]2C(=O)N(Cc2ccccc2)c2ccc(C(=O)Nc3nc4ccccc4s3)cc2)cc1OC [Compound 39, (2S,3S)—N^2-(4-(benzo[d]thiazol-2-ylcarbamoyl)phenyl)-N^2-benzyl-N^3-(3,4-dimethoxyphenyl)-2,3-epoxybutanediamide]
IC50 [1]: 4.28 µg/mL (≈ 7.03 µM) | SI (Selectivity Index = TC50/IC50) [1]: 7.49 | melting point: 224.5 to 226 °C | TC50 (half toxic concentration for Vero cells) [2]: 32.05 µg/mL

O=C(Nc1nc2ccccc2s1)c1ccc(N(Cc2ccc(F)cc2)C(=O)[C@H]2O[C@@H]2C(=O)Nc2ccc(F)c(F)c2)cc1 [Compound 22, (2S,3S)—N^2-(4-(benzo[d]thiazol-2-ylcarbamoyl)phenyl)-N^3-(3,4-difluorophenyl)-N^2-(4-fluorobenzyl)-2,3-epoxybutanediamide]
IC50 [1]: > 0.27 µg/mL | melting point: 219.2 to 219.7 °C | TC50 (half toxic concentration for Vero cells) [2]: 1.19 µg/mL

O=C(Nc1nc2ccccc2s1)c1ccc(N(Cc2ccc(F)cc2)C(=O)[C@H]2O[C@@H]2C(=O)Nc2cccc(Cl)c2Cl)cc1 [Compound 25, (2S,3S)—N^2-(4-(benzo[d]thiazol-2-ylcarbamoyl)phenyl)-N^3-(2,3-dichlorophenyl)-N^2-(4-fluorobenzyl)-2,3-epoxybutanediamide]
IC50 [1]: > 0.27 µg/mL | melting point: 210.2 to 211.1 °C | TC50 (half toxic concentration for Vero cells) [2]: 0.82 µg/mL

COC(=O)c1cnc(NC(=O)[C@H]2O[C@@H]2C(=O)N(Cc2ccc(F)cc2)c2ccc(C(=O)Nc3nc4ccccc4s3)cc2)s1 [Compound 36, (2S,3S)—N^2-(4-(benzo[d]thiazol-2-ylcarbamoyl)phenyl)-N^2-(4-fluorobenzyl)-N^3-(5-methoxycarbonylthiazol-2-yl)-2,3-epoxybutanediamide]
IC50 [1]: > 0.82 µg/mL | melting point: 219.8 to 220.2 °C | TC50 (half toxic concentration for Vero cells) [2]: 3.56 µg/mL

O=C(Nc1nc2ccccc2s1)c1ccc(N(Cc2ccc(F)cc2)C(=O)[C@H]2O[C@@H]2C(=O)Nc2ccc(F)cc2)cc1 [Compound 29, (2S,3S)—N^2-(4-(benzo[d]thiazol-2-ylcarbamoyl)phenyl)-N^3-(4-fluorophenyl)-N^2-(4-fluorobenzyl)-2,3-epoxybutanediamide]
IC50 [1]: > 0.82 µg/mL | melting point: 199.7 to 200.5 °C | TC50 (half toxic concentration for Vero cells) [2]: 1.43 µg/mL

COc1cccc(NC(=O)[C@H]2O[C@@H]2C(=O)N(Cc2ccc(F)cc2)c2ccc(C(=O)Nc3nc4ccccc4s3)cc2)c1 [Compound 21, (2S,3S)—N^2-(4-(benzo[d]thiazol-2-ylcarbamoyl)phenyl)-N^3-(3-methoxyphenyl)-N^2-(4-fluorobenzyl)-2,3-epoxybutanediamide]
IC50 [1]: > 0.27 µg/mL | melting point: 223.1 to 224.1 °C | TC50 (half toxic concentration for Vero cells) [2]: 1.19 µg/mL
